Consider nine compounds from patent US10577378B2, “EIF4A-inhibiting compounds and methods related thereto” (eFFECTOR Therapeutics, Inc., priority 2015, dated 2020).

A value given as a limit tells only on which side of the number the result lay.

The test system of this test is MDA-MB-231 human breast cancer cells. As to the kind of experiment: Cell proliferation assay (CellTiter-Glo, 72 hours treatment). Format: cell-based. To be noted: Homo sapiens; MDA-MB-231 cells, 72 hours at 37° C., CellTiter-Glo; read-out: MDA-MB-231 cell proliferation assay (IC50). As for the experimental part:
Human tumor cell lines were cultured in the appropriate media (DMEM and RPMI) supplemented with penicillin G (100 U/ml), streptomycin (100 μg/ml), 10% FBS in a humidified atmosphere of 5% CO2 maintained at 37° C. Exponentially growing cells were seeded at 2,500 cells/well in 96 well plates prior to drug treatment. The following day, cells were treated with either DMSO (vehicle control) or eIF4A inhibitors at the appropriate dose for 72 hours at 37° C. Following compound treatment, cell proliferation was assessed by CellTiter-Glo assay (Promega, Madison Wis.) according to the manufacturer's protocol. Dose-response curves were fitted by non-linear regression (sigmoidal dose response model) using KaleidaGraph (Synergy Software, Reading Pa.) and IC50 values were calculated.
To this end, IC50 values of less than 100 nM are labelled as “+++”, from 100 nM to 1000 nM are labelled as “++”, and greater than 1000 nM are labelled as “+” (NA means “not available”).
`O[C@]12c3ncc(Cl)cc3O[C@@]1(c1ccc(Br)cc1)[C@H](c1ccccc1)C[C@@]21CCO1` (racemic) [38F, Rac-(5aR,6S,8R,8aS)-5a-(4-bromophenyl)-3-chloro-6-phenyl-6,7-dihydrospiro[cyclopenta[4,5]furo[3,2-b]pyridine-8,2′-oxetan]-8a(5aH)-ol]: the IC50 is greater than 1000 nM.
To `CNC[C@H]1[C@@H](O)[C@@]2(O)c3ncc(Cl)cc3O[C@@]2(c2ccc(C#N)cc2)[C@@H]1c1ccccc1` (racemic) [39F, Rac-4-((5aR,6S,7S,8R,8aS)-3-chloro-8,8a-dihydroxy-7-((methylamino)methyl)-6-phenyl-6,7,8,8a-tetrahydro-5aH-cyclopenta[4,5]furo[3,2-b]pyridin-5a-yl)benzonitrile] belongs 100 to 1000 nM.
With `CN(C)C[C@H]1[C@@H](O)[C@@]2(O)c3ncc(Cl)cc3O[C@@]2(c2ccc(C#N)cc2)[C@@H]1c1ccccc1` (racemic) [40Fb, rac-4-((5aR,6S,7S,8R,8aS)-3-chloro-7-((dimethylamino)methyl)-8,8a-dihydroxy-6-phenyl-6,7,8,8a-tetrahydro-5aH-cyclopenta[4,5]furo[3,2-b]pyridin-5a-yl)benzonitrile], the IC50 is 100 to 1000 nM.
With `N#Cc1ccc([C@@]23Oc4cc(Cl)cnc4[C@]2(O)[C@H](O)[C@@H](CN2CCCC2)[C@H]3c2ccccc2)cc1` (racemic) [41Fa, Rac-4-((5aR,6S,7R,8R,8aS)-3-chloro-8,8a-dihydroxy-6-phenyl-7-(pyrrolidin-1-ylmethyl)-6,7,8,8a-tetrahydro-5aH-cyclopenta[4,5]furo[3,2-b]pyridin-5a-yl)benzonitrile], the IC50 was greater than 1000 nM.
To `N#Cc1ccc([C@@]23Oc4cc(Cl)cnc4[C@]2(O)[C@H](O)[C@H](CN2CCCC2)[C@H]3c2ccccc2)cc1` (racemic) [41Fb, rac-4-((5aR,6S,7S,8R,8aS)-3-chloro-8,8a-dihydroxy-6-phenyl-7-(pyrrolidin-1-ylmethyl)-6,7,8,8a-tetrahydro-5aH-cyclopenta[4,5]furo[3,2-b]pyridin-5a-yl)benzonitrile] belongs 100 to 1000 nM.
With `N#Cc1ccc([C@@]23Oc4cc(Cl)cnc4[C@]2(O)[C@@H](O)[C@H](CN2CCCC2)[C@H]3c2ccccc2)cc1` (racemic) [41Fc, rac-4-((5aR,6S,7S,8S,8aS)-3-chloro-8,8a-dihydroxy-6-phenyl-7-(pyrrolidin-1-ylmethyl)-6,7,8,8a-tetrahydro-5aH-cyclopenta[4,5]furo[3,2-b]pyridin-5a-yl)benzonitrile] the figure was greater than 1000 nM; with `COc1ccc([C@@]23Oc4cc(OC)ccc4[C@]2(N=[N+]=[N-])[C@H](O)[C@H](C(=O)N(C)C)[C@H]3c2ccccc2)cc1` (racemic) [42F, Rac-(1R,2R,3S,3aR,8bS)-8b-azido-1-hydroxy-6-methoxy-3a-(4-methoxyphenyl)-N,N-dimethyl-3-phenyl-2,3-dihydro-1H-cyclopenta[b]benzofuran-2-carboxamide], 100 to 1000 nM.
On to `COC(=O)[C@H]1[C@@H](O)[C@@]2(F)c3ncc(Cl)cc3O[C@@]2(c2ccc(Br)cc2)[C@@H]1c1ccccc1` (racemic) [43F, Rac-methyl (5aR,6S,7R,8R,8aS)-5a-(4-bromophenyl)-3-chloro-8a-fluoro-8-hydroxy-6-phenyl-5a,7,8,8a-tetrahydro-6H-cyclopenta[4,5]furo[3,2-b]pyridine-7-carboxylate], for which the IC50 is greater than 1000 nM.
With `COc1ccc([C@@]23Oc4cc(OC)ccc4[C@]2(N)[C@H](O)[C@H](C(=O)N(C)C)[C@H]3c2ccccc2)cc1` (racemic) [44F, Rac-(1R,2R,3S,3aR,8bS)-8b-amino-1-hydroxy-6-methoxy-3a-(4-methoxyphenyl)-N,N-dimethyl-3-phenyl-2,3,3a,8b-tetrahydro-1H-cyclopenta[b]benzofuran-2-carboxamide] the figure was greater than 1000 nM.
